Legend:
TMEM27 [1] = assay: Shedding of TMEM27 from MIN6 cells (immunoblot of supernatant, N-terminus; anti-V5 C-terminus as control); format: cell-based; details: 2 hrs in OPTI-MEM
Procedure: The pancreatic beta-cell line MIN6 was cultured with DMEM medium containing 25 mM glucose, 15% fetal bovine serum, and 5.5 μM 2-mercaptoethanol. MIN6 cells were plated at 50% confluency in 12 well plates and incubated for 24 hrs. Cells were washed with OPTI-MEM (Invitrogen) and incubated with either DMSO or protease inhibitor BB94 (1 μM) for 15 minutes in OPTI-MEM at 37° C. After the above incubation, cells were incubated with DMSO, PMA (Sigma P8139), BB94, or PMA+BB94 for 2 hrs in OPTI-MEM. 30 μl of each supernatant was collected for SDS-PAGE. Immunoblots were performed using anti-TMEM27 antibodies recognizing the N-terminus (cleaved portion) of TMEM27 (FIG. 8). […] Since BB94 is a known inhibitor of serine proteases and metalloproteases, this may indicate that TMEM27 is a substrate of a protease belonging to serine protease or metalloprotease family.

TMEM27 [2] = assay: Inhibition of N-glycosylation of TMEM27 in MIN6 cells (SDS-PAGE, immunoblot); format: cell-based; details: increasing concentrations of tunicamycin, 12 hours at 37° C.
Procedure: (§1) (A) MIN6 cells were incubated with increasing amounts of tunicamycin, which inhibits glycosylation at asparagine residues. Addition of DMSO alone to the cells had no effect. (B) Supernatant from MIN6 cells was incubated with N-glycanase. […] Secreted protein was detected with anti-Col-3 antibody. (C) MIN6 cell lysates were incubated with either PBS or cross-linking reagents DTBP and BMH. […] Under reducing conditions, only the monomer was detected in PBS and DTBP-treated cell lysates. In contrast, the dimer persisted in BMH-treated samples as BMH cross-linking could not be reversed.
MIN6 cells that express pV5-TMEM27 were incubated with indicated concentrations of tunicamycin (Sigma) dissolved in DMSO and with DMSO alone for 12 hours at 37° C. Cell lysates were then subjected to SDS-PAGE and immunoblotting with anti-V5 antibody.
TMEM27 contains two predicted N-glycosylation sites at amino acid residues 76 and 93. MIN6 cells were treated with tunicamycin, which inhibits N-glycosylation. Cells were incubated in the presence of increasing concentrations of tunicamycin, and protein extracts were prepared and analyzed by SDS-PAGE and immunoblotting.

[3] = target: the molecule itself; assay: chemical cross-linking (DTBP, BMH) of MIN6 cell lysates, reducing and non-reducing SDS-PAGE, immunoblot
Procedure: as §1
Chemical cross-linking experiments testing whether TMEM27 protein exists as a multimer were conducted. MIN6 cell extracts were incubated in the presence of two different cross-linking reagents; BMH (bismaleimidohexane), a membrane-permeable, non-cleavable compound and DTBP (dimethyl 3,3′-dithiobispropionimidate), a membrane permeable, cleavable compound prior to SDS-PAGE analysis that was performed under reducing and non-reducing conditions. […] However, the protein dimers disappeared under reducing conditions in the presence of DTBP (FIG. 3b). The results were similar in MIN6 cells that endogenously express TMEM27 and in N2A cells that were transiently transfected with TMEM27 expression vector (data not shown).

CCCCCCCCCCCCCC(=O)O[C@@H]1[C@@H](C)[C@@]2(O)[C@@H](C=C(CO)C[C@]3(O)C(=O)C(C)=C[C@@H]23)[C@@H]2C(C)(C)[C@]12OC(C)=O [PMA, phorbol 12-myristate 13-acetate]
expression levels of TMEM27 (C-terminus, anti-V5 antibody control) (TMEM27 [1]): do not change the expression levels of TMEM27

tunicamycin
effect on TMEM27 bands (N-glycosylation) (TMEM27 [2]): Two bands with increased electrophoretic mobility appeared

B1: TMEM27 full-length protein (other, mouse, UniProt Q9ESG4 15-222, looked up)
chain: ELCHPDAENAFKVRLSIRAALGDKAYVWDTDQEYLFRAMVAFSMRKVPNREATEISHVLLCNITQRVSFWFVVTDPSNNYTLPAAEVQSAIRKNRNRINSAFFLDDHTLEFLKIPSTLAPPMEPSVPVWIIVFGVIFCIVTVAIALLVLSGIRQRRRNNKGPPGVEDAEDKCENIITIENGIPCDPLDMKGGHINDGFLTEDERLTPL
modifications: N-glycosylated (predicted N-glycosylation sites at amino acid residues 76 and 93)
notes: Detected in cell or islet lysates (Western blot) and in fixed, permeabilized MIN6 cells; It also differs from the immunizing peptides, so it is not used here; the transgenic construct uses murine cDNA; also called TMEM protein
binding result [3]: binds
